Measurements: US9718835B2 (China Medical University Hospital, priority 2013, dated 2017)

Legend:
[1] = assay type: in vivo, BALB/c mice
Experimental: Acute toxicity of 9a in mouse was evaluated pathologically. Sixty 8-week-old male BALB/c mice were randomized into six groups (n=10) to receive 0 (vehicle only), 30, 100, 200, or 300 mg/kg of 9a i.p. on day zero. One group was kept without treatment as a normal control. […] Histopathological evaluations included 1) glycogen deposition, inflammatory cell infiltration, and focal necrosis in liver, 2) regeneration of renal tubule, inflammatory cell infiltration, and chronic progressive nephropathy in kidney, and 3) inflammatory cell infiltration and adenoma in lung. […] Thus, the animals apparently tolerated treatment with 300 mg/kg of 9a, portending an acceptable safety profile.
Sixty 8-week-old male BALB/c mice (National Laboratory Animal Center, Taipei, Taiwan) were used to evaluate single-dose toxicity. Mice were randomly divided into six groups (n=10) and received a single i.p. injection of 9a at 0 (vehicle), 30, 100, 200 or 300 mg/kg on day 0. One group was untreated as normal control. Body weight was measured every three days for fifteen days. On the end of experimental period, all animals were euthanized by CO2 and tissues from liver, lung, kidney and spleen were weighted (data not shown). Tissues were fixed with 10% formalin and embedded in paraffin. Sections 3-5 μm in thickness were prepared for histopathological examination. Hematoxylin and eosin (H&E) stained paraffin sections were evaluated histopathologically according to the guideline described by Shackelford et al.^36 and graded the symptomatic lesions. […] Statistically significant results (P<0.05) were is shown. This study was approved by the Institutional Animal Care and Use Committee (IACUC) of China Medical University (Taichung, Taiwan), and was performed according to the institutional guidelines.

A549 (Lung cancer) = test: cells; assay type: cell-based, human; details: Table 6; read-out: In vitro cytotoxicity A549 (Lung cancer)
Topo II = Topo II activity assay, nuclear extracts of treated A-549 cells, catenated kDNA; assay type: cell-based, human
From the text: (§1) First, we determined the effect of 9a on cell cycle distribution using flow cytometry analysis. […] Because it has been shown that 1-Topo I-DNA covalent complexes enhance the transcription-dependent degradation of Topo I via a 26S proteasome pathway,^32 the effects of 9a on the expression levels of Topo I and Topo II were investigated. […] Compound 9a acts directly on Topo I and results in the accumulation of covalent Topo I-DNA complexes followed by proteasomal Topo I degradation, which is the same effect as 1 and contributes to 9a's cytotoxicity.
Topo I activity test was performed using an assay kit (TopoGEN) according to the manufacturer's instructions. Nuclear extracts from 9a-treated A-549 cells were incubated with supercoiled DNA (for Topo I) or catenated kDNA (for Topo II) for 30 min at 37° C. Reaction mixture was separated by is 1% agarose gel in 1×TAE buffer. The gel was stained with ethidium bromide and photographed using Gel Doc XR (Bio-Rad).

A-549 cells = test: Cell cycle analysis by flow cytometry; assay type: cell-based, human; details: A-549, 24 h treatment
From the text: as §1
A-549 cells were fixed with ice-cold 70% EtOH followed by propidium iodide staining Samples were analyzed by a flow cytometer for cell cycle determination. Population of each cell cycle phase was calculated based on the ploidy (<2N as sub-G1; 2N as G1; between 2N and 4N as S; 4N as G2/M), and evaluated statistically by Student's t-test (P<0.01).

[2] = system: KBvin (vincristine-resistant KB subline); test: Sulforhodamine B cytotoxicity assay, KBvin; assay type: cell-based, human; details: Table 1; 72 h; average ± SD; read-out: IC50 KBvin
From the text: (§2) The human tumor cell lines used in this manuscript were A-549 (lung carcinoma), MDA-MB-231 (triple-negative breast cancer), DU-145 (hormone-insensitive prostate cancer), KB (originally isolated from epidermoid carcinoma of the nasopharynx), KBvin (vincristine-resistant KB subline), and HCT116 (colorectal adenocarcinoma). These cell lines were obtained from the Lineberger Comprehensive Cancer Center (UNC-CH) or from ATCC (Manassas, Va.), except KBvin, which was a generous gift of Professor Y.-C. Cheng (Yale University). All cell lines were maintained and assayed in RPMI-1640 medium containing 2 mM L-glutamine and 25 mM HEPES (HyClone), supplemented with 10% heat-inactivated fetal bovine serum (HyClone), 100 μg/mL streptomycin, 100 IU/mL penicillin, and 0.25 μg/mL amphotericin B (Cellgro) in a humidified atmosphere containing 5% CO2 in air. […] The 4-6×10^3 cells/well were cultured for 72 h with various concentrations of test compounds in 96-well plate at 37° C. […] Each assay was performed in triplicate with duplicated samples.

[3] = system: MDA-MB-468 (Breast cancer); test: cells; assay type: cell-based, human; details: Table 6; read-out: In vitro cytotoxicity MDA-MB-468 (Breast cancer)
[4] = system: KB (epidermoid carcinoma of the nasopharynx); test: Sulforhodamine B cytotoxicity assay, KB; assay type: cell-based, human; details: Table 1; 72 h; average ± SD; read-out: IC50 KB
Experimental: The 12 novel 1-derivatives 9a-l were evaluated for in vitro antiproliferative activity against four human tumor cell lines, KB (nasopharyngeal), A-549 (lung), DU-145 (prostate), and KBvin (MDR KB subline), by using a sulforhodamine B colorimetric assay with triplicate experiments.^30 Compounds 1 and 3 were used as controls.
The human tumor cell lines used in this manuscript were A-549 (lung carcinoma), MDA-MB-231 (triple-negative breast cancer), DU-145 (hormone-insensitive prostate cancer), KB (originally isolated from epidermoid carcinoma of the nasopharynx), KBvin (vincristine-resistant KB subline), and HCT116 (colorectal adenocarcinoma). These cell lines were obtained from the Lineberger Comprehensive Cancer Center (UNC-CH) or from ATCC (Manassas, Va.), except KBvin, which was a generous gift of Professor Y.-C. Cheng (Yale University). All cell lines were maintained and assayed in RPMI-1640 medium containing 2 mM L-glutamine and 25 mM HEPES (HyClone), supplemented with 10% heat-inactivated fetal bovine serum (HyClone), 100 μg/mL streptomycin, 100 IU/mL penicillin, and 0.25 μg/mL amphotericin B (Cellgro) in a humidified atmosphere containing 5% CO2 in air. Compound stock solutions were prepared at 10 mM in DMSO and diluted with culture medium with the final DMSO concentration ≦0.01% (v/v), a concentration without effect on cell growth. The 4-6×10^3 cells/well were cultured for 72 h with various concentrations of test compounds in 96-well plate at 37° C. […] Each assay was performed in triplicate with duplicated samples.

A-549 (lung carcinoma) = test: Sulforhodamine B cytotoxicity assay, A-549; assay type: cell-based, human; details: Table 1; 72 h; average ± SD
From the text: as §2

Question: Which results are given for `CC[C@@]1(OC(=O)CNC(Cc2ccc(OC)cc2)=NS(=O)(=O)c2ccc(C)cc2)C(=O)OCc2c1cc1n(c2=O)Cc2cc3ccccc3nc2-1` [Compound 9a]?
Answer: overt toxicity ([1]; 300 mg/kg i.p.): no overt toxicity; acute toxicity (anaphylactic, allergic responses, body weight loss) ([1]; single i.p. 30, 100, 200 or 300 mg/kg, male BALB/c mice): no anaphylactic responses, allergic reactions, or significant body weight loss; histopathological evaluation of liver, spleen, kidney and lung ([1]; single i.p. up to 300 mg/kg, male BALB/c mice): no adverse effects; IC50 (A549 (Lung cancer)): 80.3 ± 6.13 nM; Topo II decatenation of kDNA (Topo II): failed to decatenate kineoplast DNA; cell cycle distribution (A-549 cells): increased cell populations in S and sub-G1 phases; IC50 [2]: 26 nM; IC50 [3]: 22.8 ± 2.97 nM; IC50 [4]: 140 ± 18 nM; IC50 (A-549 (lung carcinoma)): 31 ± 3.5 nM
